Assay results reported in ChEMBL document CHEMBL1159261, “New bioactive monotetrahydrofuran Annonaceous acetogenins, annomuricin C and muricatocin C, from the leaves of Annona muricata” (J Nat Prod, 1995).
Converted amounts (≈) assume the structure as drawn.

Legend:
[1] = Toxicity against brine shrimp; type: organism-based; conditions: artemia, in vivo; read-out: LD50 (the source's name)
[2] = system: A549; assay: Cytotoxicity against human A549 cells after 7 days by MTT assay; type: functional; conditions: A549, 168 h, read-out: ED50 (the source's name)
[3] = system: MCF7; assay: Cytotoxicity against human MCF7 cells after 7 days by MTT assay; type: functional; conditions: MCF7, 168 h, read-out: ED50 (the source's name)
[4] = system: HT-29; assay: Cytotoxicity against human HT-29 cells after 7 days by MTT assay; type: functional; conditions: HT-29, 168 h, read-out: ED50 (the source's name)

Compound	LC50 [1] [µg/mL]	EC50 [2] [µg/mL]	EC50 [3] [µg/mL]	EC50 [4] [µg/mL]
CCCCCCCCCCCC[C@@H](O)[C@H]1CC[C@H]([C@H](O)CC[C@@H]2C[C@@H](CCCCC[C@@H](O)CC3=C[C@H](C)OC3=O)OC(C)(C)O2)O1	0.189 (≈ 0.289 µM)	0.00376 (≈ 0.00576 µM)	0.00398 (≈ 0.0061 µM)	0.261 (≈ 0.4 µM)
CCCCCCCCCCCC[C@@H](O)[C@H]1CC[C@H]([C@H](O)CCC[C@H](O)[C@@H](O)CCCCC[C@@H](O)CC2=C[C@H](C)OC2=O)O1 [ANNOMURICIN C]	0.613 (≈ 1 µM)	0.308 (≈ 0.503 µM)	0.228 (≈ 0.372 µM)	1.54 (≈ 2.51 µM)
COc1cccc2c1C(=O)c1c(O)c3c(c(O)c1C2=O)C[C@@](O)(C(=O)CO)C[C@@H]3O[C@H]1C[C@H](N)[C@H](O)[C@H](C)O1 [DOXORUBICIN]	–	–	0.106 (≈ 0.195 µM)	0.0348 (≈ 0.064 µM)
CCCCCCCCCCCC[C@@H](O)[C@H]1CC[C@H]([C@H](O)CCC[C@@H]2OC(C)(C)O[C@@H]2CCCCC[C@@H](O)CC2=C[C@H](C)OC2=O)O1	0.235 (≈ 0.36 µM)	0.0698 (≈ 0.107 µM)	0.00481 (≈ 0.00737 µM)	1.41 (≈ 2.16 µM)
CCCCCCCCCCCC[C@@H](O)[C@H]1CC[C@H]([C@H](O)CC[C@@H](O)C[C@H](O)CCCCC[C@@H](O)CC2=C[C@H](C)OC2=O)O1 [MURICATOCIN C]	0.604 (≈ 0.985 µM)	0.0909 (≈ 0.148 µM)	0.0645 (≈ 0.105 µM)	1.48 (≈ 2.41 µM)
